Measured values from PubChem BioAssay AID2060908 (Molecular Pharmacology Branch, DTP, NCI, 2025).

Test system: 186277-243-T-J2-PDC complex spheroids, viability
Assay: Anticancer human tumor 186277-243-T-J2-PDC patient-derived colon adenocarcinoma cell line growth inhibition [RAS]
Details: for IC50: curve of first compound; for viability, T/C: stronger effect = lower value
Source text: RAS pathway inhibitors in Combinations in Complex Spheroids
A high-throughput screen of multi-cell type tumor spheroids was designed to identify active combinations of RAS pathway inhibitors and targeted small molecules. Complex spheroids include a stromal component modeled by human endothelial cells (HUVEC) and fibroblasts modeled by human mesenchymal stem cells (MSCs). The concentration ranges selected for each drug and investigational agent were based upon clinically achievable concentrations if the clinical Cmax of the agent was known.
Compounds. The drugs and investigational agents: abemaciclib (NSC768073), cobimetinib (NSC768068), divarasib (GDC6063, NSC841802), docetaxel (NSC628503), GDC-1971 (RLY-1971, NSC841576), gemcitabine (NSC613327), inavolisib (NSC800729), ipatasertib (NSC767898), KB-0742 (NSC834161), MRTX-1133 (NSC836407), osimertinib (NSC779217), RMC-4630 (NSC839698), RMC-6236 (NSC851965), RMC-6291 (NSC852671), Ro-3306 (NSC812927), sapanisertib (NSC764658), SN-38 (NSC673596), staurosporine (NSC755774), SY5609 (NSC837396), and tovorafenib (DAY101, NSC766906), were obtained from the National Cancer Institute (NCI) Developmental Therapeutics Program Chemical Repository. The FDA-approved anticancer drug set is available from the NCI Developmental Therapeutics Program. […] The stock solutions were prepared in dimethyl sulfoxide (DMSO, Sigma-Aldrich, St. Louis, MO, cat. D2650) at 800-fold the tested concentration and stored at -70 degrees C prior to their use. All drugs and investigational agents were tested over a range starting from a high concentration at or near the clinical Cmax and decreasing in half-log increments. If the clinical Cmax for an agent had not been determined, the highest concentration tested was 10 microM.
Cell Culture. All cells were maintained in an incubator at 37 degrees C and 5% CO2 with 95% humidity. The PDC lines were cultured according to standard operating procedures established by the NCI PDMR. All PDCs were thawed and cultured in Matrigel-coated flasks prepared with a working solution of 1X Ham's F-12 nutrient mix, without supplementation (Invitrogen, Waltham, MA, cat. 11765054), 100 U/mL penicillin-streptomycin (Invitrogen, cat. 15140122), and 2.5% Matrigel (Corning Inc., Corning, NY, cat. 354248) for the first three passages. The 362531-283-R-J2-PDC and 782815-120-R-J1-PDC lines were cultured in 6C/Colon 1B media, which includes advanced DMEM/F-12 (Thermo Fisher Scientific, cat. 12634028), 10 mM HEPES (Thermo Fisher Scientific, cat. 15630080), 1X GlutaMAX supplement (Thermo Fisher Scientific, cat. 35050061), 0.1 mg/mL primocin (InvivoGen, San Diego, CA, cat. ant-pm-2), 10% defined fetal bovine serum, heat inactivated (HyClone Laboratories Inc., Logan, UT, cat. SH30070.03HI), 50% L-WRN conditioned media (ATCC, cat. CRL-3276), 1.25 mM N-Acetyl-L-cysteine (Sigma-Aldrich, cat. A9165), 10 mM nicotinamide (Sigma-Aldrich, cat. N0636), 1X B-27 supplement (Thermo Fisher Scientific, cat. 17504044), 1X N-2 supplement (Thermo Fisher Scientific, cat. 17502048), 50 ng/mL human EGF (Thermo Fisher Scientific, cat. PHG0311), and 10 microM Y-27632 dihydrochloride (Tocris Bioscience, cat. 1254). The K12877-001-R-J1-PDC line was cultured in 6I media, which includes all 6C/Colon 1B media plus 10 ng/mL human FGF-10 (PeproTech, cat. 100-26), 1 ng/mL human FGF-2 (PeproTech, cat. 100-18B), 1 µM prostaglandin E2 (Tocris Bioscience, cat. 2296), […] hydrocortisone (Sigma-Aldrich, cat. H4001), and […] bovine insulin (Sigma-Aldrich, cat. I6634). The K86415-001-R-J1-PDC line was cultured in 6D media, which includes all 6C/Colon 1B media components minus the L-WRN conditioned media. The 485176-168-R4-J1-PDC was cultured in PANC media, which includes all 6C/Colon 1B media plus 100 ng/mL human FGF-10 (PeproTech, cat. 100-26), 500 nM SB-431542 (Selleckchem, cat. S1067), and 10 nM gastrin (Tocris Bioscience, cat. 3006). […]

[1] = second compound 0.0316 µM, first compound 0.0316 µM
[2] = second compound 0.0316 µM, first compound 0.1 µM
[3] = second compound 0.0316 µM, first compound 0.316 µM
[4] = second compound 0.0316 µM, first compound 1 µM
[5] = second compound 0.1 µM, first compound 0.0316 µM
[6] = second compound 0.1 µM, first compound 0.1 µM
[7] = second compound 0.1 µM, first compound 0.316 µM
[8] = second compound 0.1 µM, first compound 1 µM
[9] = second compound 0.316 µM, first compound 0.0316 µM
[10] = second compound 0.316 µM, first compound 0.1 µM
[11] = second compound 0.316 µM, first compound 0.316 µM
[12] = second compound 0.316 µM, first compound 1 µM
[13] = second compound 1 µM, first compound 0.0316 µM
[14] = second compound 1 µM, first compound 0.1 µM
[15] = second compound 1 µM, first compound 0.316 µM
[16] = second compound 1 µM, first compound 1 µM
[17] = second compound 3.16 µM, first compound 0.0316 µM
[18] = second compound 3.16 µM, first compound 0.1 µM
[19] = second compound 3.16 µM, first compound 0.316 µM
[20] = second compound 3.16 µM, first compound 1 µM
[21] = second compound 10 µM, first compound 0.0316 µM
[22] = second compound 10 µM, first compound 0.1 µM
[23] = second compound 10 µM, first compound 0.316 µM
[24] = second compound 10 µM, first compound 1 µM
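Note: spheroids exposed to compounds for 7 days before viability read.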

Q: What does the source list for `CC(Nc1ccc2c(c1)OCCn1cc(N3C(=O)OCC3C(F)F)nc1-2)C(N)=O` (centres undefined) + C#Cc1c(F)ccc2cc(O)cc(-c3ncc4c(N5CC6CCC(C5)N6)nc(OCC56CCCN5CC(F)C6)nc4c3F)c12?
A: IC50 (second compound 0.0316 µM): < 31.6 nM; IC50 (second compound 0.1 µM): < 31.6 nM; IC50 (second compound 0.316 µM): < 31.6 nM; IC50 (second compound 1 µM): < 31.6 nM; IC50 (second compound 3.16 µM): < 31.6 nM; IC50 (second compound 10 µM): < 31.6 nM; viability, T/C [1]: 45.9%; viability, T/C [2]: 39.7%; viability, T/C [3]: 16.1%; viability, T/C [4]: 7.04%; viability, T/C (second compound 0.0316 µM, first compound 3.16 µM): 3.9%; viability, T/C (second compound 0.0316 µM, first compound 10 µM): 3.75%; viability, T/C [5]: 25.7%; viability, T/C [6]: 16%; viability, T/C [7]: 4.89%; viability, T/C [8]: 2.76%; viability, T/C (second compound 0.1 µM, first compound 3.16 µM): 1.89%; viability, T/C (second compound 0.1 µM, first compound 10 µM): 2.88%; viability, T/C [9]: 18.2%; viability, T/C [10]: 7.51%; viability, T/C [11]: 2.9%; viability, T/C [12]: 2.32%; viability, T/C (second compound 0.316 µM, first compound 3.16 µM): 1.28%; viability, T/C (second compound 0.316 µM, first compound 10 µM): 1.02%; viability, T/C [13]: 9.56%; viability, T/C [14]: 5.56%; viability, T/C [15]: 2.6%; viability, T/C [16]: 1.95%; viability, T/C (second compound 1 µM, first compound 3.16 µM): 1.11%; viability, T/C (second compound 1 µM, first compound 10 µM): 1.01%; viability, T/C [17]: 8.36%; viability, T/C [18]: 4.7%; viability, T/C [19]: 2.45%; viability, T/C [20]: 1.84%; viability, T/C (second compound 3.16 µM, first compound 3.16 µM): 3.64%; viability, T/C (second compound 3.16 µM, first compound 10 µM): 0.74%; viability, T/C [21]: 6.16%; viability, T/C [22]: 2.81%; viability, T/C [23]: 1.2%; viability, T/C [24]: 0.66%; viability, T/C (second compound 10 µM, first compound 3.16 µM): 0.3%; viability, T/C (second compound 10 µM, first compound 10 µM): 0.16%

Q: What does the source list for `O=C(c1ccc(F)c(F)c1Nc1ccc(I)cc1F)N1CC(O)([C@@H]2CCCCN2)C1` + C#Cc1c(F)ccc2cc(O)cc(-c3ncc4c(N5CC6CCC(C5)N6)nc(OCC56CCCN5CC(F)C6)nc4c3F)c12?
A: IC50 (second compound 0.0316 µM): 20.9 nM; IC50 (second compound 0.1 µM): 3.25 nM; IC50 (second compound 0.316 µM): < 3.16 nM; IC50 (second compound 1 µM): < 3.16 nM; IC50 (second compound 3.16 µM): < 3.16 nM; IC50 (second compound 10 µM): < 3.16 nM; viability, T/C (second compound 0.0316 µM, first compound 0.00316 µM): 72.4%; viability, T/C (second compound 0.0316 µM, first compound 0.01 µM): 56.3%; viability, T/C [1]: 47.1%; viability, T/C [2]: 15.4%; viability, T/C [3]: 5.69%; viability, T/C [4]: 6.25%; viability, T/C (second compound 0.1 µM, first compound 0.00316 µM): 50%; viability, T/C (second compound 0.1 µM, first compound 0.01 µM): 40.8%; viability, T/C [5]: 20%; viability, T/C [6]: 9.26%; viability, T/C [7]: 6.29%; viability, T/C [8]: 3.94%; viability, T/C (second compound 0.316 µM, first compound 0.00316 µM): 18.9%; viability, T/C (second compound 0.316 µM, first compound 0.01 µM): 17.5%; viability, T/C [9]: 10.5%; viability, T/C [10]: 9.19%; viability, T/C [11]: 4.54%; viability, T/C [12]: 3.72%; viability, T/C (second compound 1 µM, first compound 0.00316 µM): 12.6%; viability, T/C (second compound 1 µM, first compound 0.01 µM): 9.81%; viability, T/C [13]: 8.46%; viability, T/C [14]: 6.3%; viability, T/C [15]: 4.16%; viability, T/C [16]: 3.53%; viability, T/C (second compound 3.16 µM, first compound 0.00316 µM): 9%; viability, T/C (second compound 3.16 µM, first compound 0.01 µM): 9.32%; viability, T/C [17]: 7.86%; viability, T/C [18]: 5.98%; viability, T/C [19]: 3.91%; viability, T/C [20]: 3.32%; viability, T/C (second compound 10 µM, first compound 0.00316 µM): 6.85%; viability, T/C (second compound 10 µM, first compound 0.01 µM): 7.33%; viability, T/C [21]: 5.34%; viability, T/C [22]: 3.85%; viability, T/C [23]: 2.37%; viability, T/C [24]: 1.61%
